Laboratory results reported in patent US10189859B2, “Derivatives of 6-(2,3-dichlorophenyl)-1,2,4-triazin-5-amine” (Nektar Therapeutics, priority 2013, dated 2019).
pIC50: −log10 of the molar value. Where “and” joins values, the source holds several entries; their conditions need not be identical. Equal entries are not always repeated. Structures can show the parent of a compound that is named as a salt. Where two headings read alike, the source gives them in different places.

Target: Nav1.7 sodium channels (human SCN9A gene) (Homo sapiens (Human), UniProt Q15858)
Assay: Automated patch clamp (IonWorks Barracuda) of Nav1.7 stably expressed in CHO cells
Type: cell-based
Experimental: The potencies of the compounds provided herein to block specific Na+ channels was measured using automated patch clamp electrophysiologically of Nav1.7 sodium channels (human SCN9A gene) stably expressed in CHO cells using the IonWorks™ Barracuda system. Currents were measured from the whole cell patch configuration. From a holding potential of −90 mV, membranes were subjected to a 200 ms pre-pulse to −120 mV, then pulsed to 0 mV to measure blockade of the tonic (resting) state. Inactivated state block was elicited by repolarization to −100 mV (20 ms pulse duration), followed by depolarization to 0 mV (20 ms pulse duration). Peak inward Na+ currents were measured in the presence of vehicle or various concentrations of the test compound to determine the percent block of current. Concentration-response relationships were used to calculate IC50 values for the illustrative compounds.

[1] = inactivated state block, CHO cells, read-out: Inactivated state IC50
[2] = tonic (resting) state block, CHO cells, read-out: Tonic state IC50
[3] = read-out: Inactivated state IC50

Chain of Nav1.7 sodium channels (human SCN9A gene) (Q15858 whole entry): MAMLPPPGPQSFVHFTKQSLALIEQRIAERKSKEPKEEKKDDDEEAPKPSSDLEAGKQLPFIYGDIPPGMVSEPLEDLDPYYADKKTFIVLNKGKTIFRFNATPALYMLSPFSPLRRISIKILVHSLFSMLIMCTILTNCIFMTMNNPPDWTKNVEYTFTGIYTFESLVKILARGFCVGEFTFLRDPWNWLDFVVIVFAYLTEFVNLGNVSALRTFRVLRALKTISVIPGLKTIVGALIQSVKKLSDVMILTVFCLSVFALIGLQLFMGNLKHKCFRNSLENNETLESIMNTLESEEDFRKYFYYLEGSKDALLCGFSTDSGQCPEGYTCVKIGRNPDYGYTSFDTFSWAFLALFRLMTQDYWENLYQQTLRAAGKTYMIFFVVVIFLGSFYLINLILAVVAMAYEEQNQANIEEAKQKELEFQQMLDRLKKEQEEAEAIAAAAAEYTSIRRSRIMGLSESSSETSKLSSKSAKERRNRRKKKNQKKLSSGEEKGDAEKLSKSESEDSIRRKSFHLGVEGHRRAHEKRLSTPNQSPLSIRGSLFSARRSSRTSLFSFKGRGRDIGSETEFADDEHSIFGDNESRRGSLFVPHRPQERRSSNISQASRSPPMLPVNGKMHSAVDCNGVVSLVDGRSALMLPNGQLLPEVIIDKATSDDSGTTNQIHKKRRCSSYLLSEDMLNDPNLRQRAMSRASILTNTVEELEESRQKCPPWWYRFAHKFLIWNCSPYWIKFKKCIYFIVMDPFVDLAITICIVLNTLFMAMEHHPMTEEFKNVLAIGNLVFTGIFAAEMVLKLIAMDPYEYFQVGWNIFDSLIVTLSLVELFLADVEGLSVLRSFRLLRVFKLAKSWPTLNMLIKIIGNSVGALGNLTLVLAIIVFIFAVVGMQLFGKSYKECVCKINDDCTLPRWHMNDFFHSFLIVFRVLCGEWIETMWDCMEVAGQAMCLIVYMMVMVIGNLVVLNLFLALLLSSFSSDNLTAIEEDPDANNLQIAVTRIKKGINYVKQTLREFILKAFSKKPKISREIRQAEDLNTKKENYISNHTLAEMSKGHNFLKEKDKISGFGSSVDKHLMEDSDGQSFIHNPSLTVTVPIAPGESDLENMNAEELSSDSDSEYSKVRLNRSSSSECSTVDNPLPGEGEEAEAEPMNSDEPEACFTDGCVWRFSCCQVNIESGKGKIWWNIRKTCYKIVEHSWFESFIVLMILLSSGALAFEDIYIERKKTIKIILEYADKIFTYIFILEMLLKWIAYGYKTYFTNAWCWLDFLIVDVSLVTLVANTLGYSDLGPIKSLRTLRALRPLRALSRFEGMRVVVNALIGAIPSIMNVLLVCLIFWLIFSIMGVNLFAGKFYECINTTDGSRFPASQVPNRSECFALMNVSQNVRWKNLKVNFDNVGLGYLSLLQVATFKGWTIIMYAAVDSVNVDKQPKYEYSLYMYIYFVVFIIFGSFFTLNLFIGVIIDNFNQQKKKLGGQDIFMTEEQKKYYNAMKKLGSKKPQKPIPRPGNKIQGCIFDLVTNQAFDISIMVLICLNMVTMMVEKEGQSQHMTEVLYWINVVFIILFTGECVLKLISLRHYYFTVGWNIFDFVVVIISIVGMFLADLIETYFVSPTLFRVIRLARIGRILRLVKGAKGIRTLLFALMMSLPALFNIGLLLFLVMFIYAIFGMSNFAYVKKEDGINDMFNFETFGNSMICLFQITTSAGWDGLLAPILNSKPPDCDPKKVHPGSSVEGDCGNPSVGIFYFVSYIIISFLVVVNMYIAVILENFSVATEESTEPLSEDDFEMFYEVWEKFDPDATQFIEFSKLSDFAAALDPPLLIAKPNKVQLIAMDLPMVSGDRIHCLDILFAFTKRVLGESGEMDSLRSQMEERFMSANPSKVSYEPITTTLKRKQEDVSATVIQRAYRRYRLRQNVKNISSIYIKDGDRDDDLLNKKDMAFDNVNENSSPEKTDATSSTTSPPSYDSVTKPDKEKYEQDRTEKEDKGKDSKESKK

Structure (SMILES) | pIC50 [1] | pIC50 [2] | pIC50 [3] | pIC50 (read-out: Tonic state IC50)
CC(=O)NCCOCCNc1nnc(-c2cccc(Cl)c2Cl)c(N)n1 [Compound 175, N-(2-(2-((5-amino-6-(2,3-dichlorophenyl)-1,2,4-triazin-3-yl)amino)ethoxy)ethyl)acetamide] | < 3.52 | < 3.70 | – | –
Nc1nc(N2CCNCC23CC3)nnc1-c1cccc(Cl)c1Cl [Compound 141, 6-(2,3-dichlorophenyl)-3-(4,7-diazaspiro[2.5]octan-4-yl)-1,2,4-triazin-5-amine] | 3.83 | < 3.70 | – | –
NC(=O)CNCCOCCNc1nnc(-c2cccc(Cl)c2Cl)c(N)n1 [Compound 194, 2-((2-(2-((5-amino-6-(2,3-dichlorophenyl)-1,2,4-triazin-3-yl)amino)ethoxy)ethyl)amino)acetamide] | – | – | < 3.52 | < 3.70
COCCOCCN(C)CCN(C)c1nnc(-c2cccc(Cl)c2Cl)c(N)n1 [Compound 193, 6-(2,3-dichlorophenyl)-N3-(2-((2-(2-methoxyethoxy)ethyl)(methyl)amino)ethyl)-N3-methyl-1,2,4-triazine-3,5-diamine] | > 4.30 | 4.20 | – | –
COCCOCC(=O)NCC(O)CNc1nnc(-c2cccc(Cl)c2Cl)c(N)n1 (stereo not drawn) [Compound 196, N-(3-((5-amino-6-(2,3-dichlorophenyl)-1,2,4-triazin-3-yl)amino)-2-hydroxypropyl)-2-(2-methoxyethoxy)acetamide] | < 3.52 | < 3.70 | – | –
CC(CS(=O)(=O)CCO)Nc1nnc(-c2cccc(Cl)c2Cl)c(N)n1 (stereo not drawn) [Compound 93, 2-((2-((5-amino-6-(2,3-dichlorophenyl)-1,2,4-triazin-3-yl)amino)propyl)sulfonyl)ethanol] | < 3.52 | < 3.70 | – | –
Nc1nc(N2CCN(CC(O)CO)C[C@H]2CO)nnc1-c1cccc(Cl)c1Cl (stereo partly drawn) [Compound 140, 3-((S)-4-(5-amino-6-(2,3-dichlorophenyl)-1,2,4-triazin-3-yl)-3-(hydroxymethyl)piperazin-1-yl)propane-1,2-diol] | – | – | < 3.52 | < 3.70
Nc1nc(N2CCN(CCOC(F)(F)F)CC2)nnc1-c1cccc(Cl)c1Cl [Compound 88, 6-(2,3-dichlorophenyl)-3-(4-(2-(trifluoromethoxy)ethyl)piperazin-1-yl)-1,2,4-triazin-5-amine] | > 4.30 | 3.95 | – | –
COC[C@@H](O)CN[C@@H]1CCN(c2nnc(-c3cccc(Cl)c3Cl)c(N)n2)C1 [Compound 159, (S)-1-(((R)-1-(5-amino-6-(2,3-dichlorophenyl)-1,2,4-triazin-3-yl)pyrrolidin-3-yl)amino)-3-methoxypropan-2-ol] | 3.54 | < 3.70 | – | –
COCCOCCOCC(=O)N1CCC(Nc2nnc(-c3cccc(Cl)c3Cl)c(N)n2)CC1 [Compound 107, 3-N-(4′-N-mPEG2-CM piperidinyl) lamotrigine] | < 3.52 | < 3.70 | – | –
COCCOCCOCCN1CCC(Nc2nnc(-c3cccc(Cl)c3Cl)c(N)n2)CC1 [Compound 108, 3-N-(1-N-mPEG3-piperidin-4-yl) lamotrigine] | 3.73 | < 3.70 | – | –
CC(C)(C)OCC(O)CN1CCN(c2nnc(-c3cccc(Cl)c3Cl)c(N)n2)[C@H](CO)C1 (stereo partly drawn) [Compound 139, 1-((S)-4-(5-amino-6-(2,3-dichlorophenyl)-1,2,4-triazin-3-yl)-3-(hydroxymethyl)piperazin-1-yl)-3-(tert-butoxy)propan-2-ol] | 3.99 | < 3.70 | – | –
CC(C)(C)OCC(O)CN1CCN(c2nnc(-c3cccc(Cl)c3Cl)c(N)n2)C[C@H]1CO (stereo partly drawn) [Compound 136, 1-((S)-4-(5-amino-6-(2,3-dichlorophenyl)-1,2,4-triazin-3-yl)-2-(hydroxymethyl)piperazin-1-yl)-3-(tert-butoxy)propan-2-ol] | 4.06 and 4.03 | < 3.70 | – | –
CC(C)OCCOCCOCCNc1nnc(-c2cccc(Cl)c2Cl)c(N)n1 [Compound 209, 6-(2,3-dichlorophenyl)-N3-(2-(2-(2-isopropoxyethoxy)ethoxy)ethyl)-1,2,4-triazine-3,5-diamine] | > 4.30 | < 3.70 | – | –
CS(=O)(=O)CCOCCNc1nnc(-c2cccc(Cl)c2Cl)c(N)n1 [Compound 176, 6-(2,3-dichlorophenyl)-N3-(2-(2-(methylsulfonyl)ethoxy)ethyl)-1,2,4-triazine-3,5-diamine] | 3.57 and 3.74 | < 3.70 | – | –
COCCOCC(=O)N(C)CCN(C)c1nnc(-c2cccc(Cl)c2Cl)c(N)n1 [Compound 190, N-(2-((5-amino-6-(2,3-dichlorophenyl)-1,2,4-triazin-3-yl)(methyl)amino)ethyl)-2-(2-methoxyethoxy)-N-methylacetamide] | 3.56 | < 3.70 | – | –

The next lines start with results.

pIC50 [1] | pIC50 [2] | Structure (SMILES) | pIC50 [3] | pIC50 (read-out: Tonic state IC50)
4.29 | 3.83 | COC[C@@H](O)CN1CCC12CCCN(c1nnc(-c3cccc(Cl)c3Cl)c(N)n1)C2 (stereo partly drawn) [Compound 161, (2S)-1-(6-(5-amino-6-(2,3-dichlorophenyl)-1,2,4-triazin-3-yl)-1,6-diazaspiro[3.5]nonan-1-yl)-3-methoxypropan-2-ol] | – | –
< 3.52 | < 3.70 | Nc1nc(N2CCNC[C@H]2CO)nnc1-c1cccc(Cl)c1Cl [Compound 135] | – | –
> 4.30 | < 3.70 | COC(=O)COCCOCCNc1nnc(-c2cccc(Cl)c2Cl)c(N)n1 [Compound 197, methyl 2-(2-(2-((5-amino-6-(2,3-dichlorophenyl)-1,2,4-triazin-3-yl)amino)ethoxy)ethoxy)acetate] | – | –
> 4.30 | < 3.70 | Nc1nc(N2CCN(CC(F)(F)F)CC2)nnc1-c1cccc(Cl)c1Cl [Compound 87, 6-(2,3-dichlorophenyl)-3-(4-(2,2,2-trifluoroethyl)piperazin-1-yl)-1,2,4-triazin-5-amine] | – | –
< 3.52 | < 3.70 | COC[C@@H](O)CN1CCN(c2nnc(-c3cccc(Cl)c3Cl)c(N)n2)[C@H](CO)C1 [Compound 138, (S)-1-((S)-4-(5-amino-6-(2,3-dichlorophenyl)-1,2,4-triazin-3-yl)-3-(hydroxymethyl)piperazin-1-yl)-3-methoxypropan-2-ol] | – | –
3.53 | < 3.70 | COCCOCCOCC(COCCOCCOC)OCCNc1nnc(-c2cccc(Cl)c2Cl)c(N)n1 [Compound 180, 6-(2,3-dichlorophenyl)-N3-(10-((2-(2-methoxyethoxy)ethoxy)methyl)-2,5,8,11-tetraoxatridecan-13-yl)-1,2,4-triazine-3,5-diamine] | – | –
3.80 | < 3.70 | C[S+]([O-])CCOCCNc1nnc(-c2cccc(Cl)c2Cl)c(N)n1 (stereo not drawn) [Compound 187, 6-(2,3-dichlorophenyl)-N3-(2-(2-(methylsulfinyl)ethoxy)ethyl)-1,2,4-triazine-3,5-diamine] | – | –
> 4.30 | 3.82 and 3.75 | CN(CCNC[C@H](O)C(F)(F)F)c1nnc(-c2cccc(Cl)c2Cl)c(N)n1 [Compound 147, (S)-3-((2-((5-amino-6-(2,3-dichlorophenyl)-1,2,4-triazin-3-yl)(methyl)amino)ethyl)amino)-1,1,1-trifluoropropan-2-ol] | – | –
< 3.82 | < 3.82 | Nc1nc(N2CCN[C@@H](CO)C2)nnc1-c1cccc(Cl)c1Cl [Compound 122, (R)-5-amino-3-N-[3-(hydroxymethyl)piperazin-1-yl] lamotrigine diHCl] | – | –
> 4.30 | 3.72 | Nc1nc(N2CCN(C[C@H](O)COC3CCC3)CC2)nnc1-c1cccc(Cl)c1Cl [Compound 84, (2S)-1-{4-[5-Amino-6-(2,3-dichlorophenyl)-1,2,4-triazin-3-yl]piperazin-1-yl}-3-(cyclobutyloxy)propan-2-ol] | – | –
< 3.52 | < 3.70 | CN1CCN(CCOCCNc2nnc(-c3cccc(Cl)c3Cl)c(N)n2)CC1 [Compound 169, 6-(2,3-dichlorophenyl)-N3-(2-(2-(4-methylpiperazin-1-yl)ethoxy)ethyl)-1,2,4-triazine-3,5-diamine] | – | –
< 3.52 | < 3.70 | Nc1nc(NC2CNC2)nnc1-c1cccc(Cl)c1Cl [Compound 132, 3-N-(azetidin-3-yl) lamatrogine 2HCl salt] | – | –
> 4.30 | 3.77 | Nc1nc(N2CCN(C[C@H](O)COCC3CC3)CC2)nnc1-c1cccc(Cl)c1Cl [Compound 83, (2S)-1-{4-[5-Amino-6-(2,3-dichlorophenyl)-1,2,4-triazin-3-yl]piperazin-1-yl}-3-(cyclopropylmethoxy)propan-2-ol] | – | –
< 3.52 and 3.65 | < 3.70 | COC[C@@H](O)CN1CCN(c2nnc(-c3cccc(Cl)c3Cl)c(N)n2)C[C@H]1CO [Compound 134, (S)-1-((S)-4-(5-amino-6-(2,3-dichlorophenyl)-1,2,4-triazin-3-yl)-2-(hydroxymethyl)piperazin-1-yl)-3-methoxypropan-2-ol] | – | –
4.00 | < 3.70 | COCCS(=O)(=O)CCOCCNc1nnc(-c2cccc(Cl)c2Cl)c(N)n1 [Compound 186, 6-(2,3-dichlorophenyl)-N3-(2-(2-((2-methoxyethyl)sulfonyl)ethoxy)ethyl)-1,2,4-triazine-3,5-diamine] | – | –
> 4.30 | < 3.70 | COCCOCCOCCN1CCN(c2nnc(-c3cc(F)cc(Cl)c3Cl)c(N)n2)CC1 [Compound 104, 3-N-(4′-N-mPEG3-piperazinyl) 5-fluoro lamotrigine] | – | –
< 3.52 | < 3.70 | COCCOCCOCC(O)CNc1nnc(-c2cccc(Cl)c2Cl)c(N)n1 (stereo not drawn) [Compound 153, 1-((5-Amino-6-(2,3-dichlorophenyl)-1,2,4-triazin-3-yl)amino)-3-(2-(2-methoxyethoxy)ethoxy)propan-2-ol] | – | –
